Measured values published in patent US20260325605A1, “INHIBITORS” (Zealand Pharma A/S, priority 2022, published 2026).

How the values were obtained:
Kv1.1 = biological target: T1, Kv1.1 (Homo sapiens, UniProt Q09470); assay: Patch clamp assay (QPatch), Kv1.1; format: cell-based
T1 construct: expressed in transfected cells

Kv1.3 = biological target: T2, Kv1.3 (Homo sapiens, UniProt P22001); assay: Patch clamp assay (QPatch), Kv1.3; format: cell-based; settings: CHO cells stably expressing human Kv1.3, read-out: Potency IC50, Kv1.3
T2 construct: expressed in transfected cells

[1] = test system: KLH-induced DTH ear swelling in rats; assay: Example 10: Maximal effective dose in KLH-induced DTH model; format: in vivo, rat (Lewis)
Procedure: Healthy male Lewis rats aged 8-9 weeks were immunized on day 0 with 200 μL keyhole limpet hemocyanin (KLH) (from Sigma, cat.no. H7017) (4 mg/mL) emulsified in complete Freund's adjuvant (CFA) (Difco, cat.no. 263810) subcutaneously (SC) at the base of the tail.
To elicit a KLH-specific T cell-mediated local inflammation, rats were challenged intradermally at indicated timepoints (days 7, 9, 11 or 13 post-immunisation) with 40 μL KLH/NaCl 0.9% (2 mg/mL) in the left ear. Ear edemas were measured after 24-48 hrs and the right ear that was left untreated served as control. A schematic overview of the protocol is depicted in FIG. 1. […]
This study was conducted as described in example 8 with the difference that the rats were only challenged intradermally at days 7 or 11 post-immunisation (i.e. day 1 and day 5 after treatment) with 40 μL KLH/NaCl 0.9% (2 mg/mL) in the left ear. A schematic overview of the protocol is depicted in FIG. 5.
The doses of Kv1.3 inhibitor treatment able to reduce the DTH ear swelling response was investigated by comparing the response in rats (n=8/group) treated with vehicle to that of rats treated with different doses of peptide 100. Vehicle or peptide 100 dissolved in vehicle was administered SC (2 mL/kg) on day 6 post-immunisation. The test dose of Kv1.3 inhibitor was 10, 100, 300 or 700 nmol/kg. Test vehicle was 10 mM phosphate, 0.8% w/v NaCl, 0.05% w/v polysorbate20, pH 6.
As readout of efficacy, the thickness of the induced ear 24 hrs and 48 hrs after respective ear challenge was measured and compared to vehicle control. Ear thickness 24 hrs after challenge is shown in Table 13 and FIG. 6 and ear thickness 48 hrs after challenge is shown in Table 14 and FIG. 7.

[2] = test system: collagen-induced arthritis in rats; assay: Example 9: Rat collagen-induced arthritis (CIA) model, clinical score; format: in vivo, rat (Lewis); parameters: key: qualitative severity score summed over four paws, maximum 16
Procedure: Vehicle: 10 mM phosphate pH 6+0.8% NaCl+0.05% polysorbate 20
Peptide: Peptide 100 is formulated in vehicle at 50 nmol/mL. Dosing volume was individually adjusted according to the body weight of each animal to reach the target dose of peptide 100 of 100 nmol/kg.
The animal care facility employed is accredited by AAALAC. Female Lewis rats, weighing 180±20 g at delivery were used for this study. Following arrival in the animal facility, all animals were subjected to a general health evaluation. An acclimation period of 1 day was allowed before the beginning of the study.
Animals were grouped into 9 each based on their body weight. All animals were challenged with porcine type-II collagen with incomplete Freund's adjuvant on day 1 (0.2 mg/0.2 mL/rat, subcutaneously at the base of the tail) and boosted on day 7 (0.1 mg/0.1 mL/rat, s.c.). In the study dexamethasone given daily PO at 0.3 mg/kg was used as a positive control.
From day 12 to day 30, peptide 100 was administered as a single bolus either daily (QD), every third day (Q3D) or every fifth day (Q5D) subcutaneously into the flank. […] The peptide and vehicle were dosed at a volume of 2 mL/kg. Dosing volume was individually adjusted according to the body weight of each animal to reach the target dose of formulation 1 of 100 nmol/kg.
Disease was assessed by using a qualitative severity score system (see below, maximum score of 16) on days 1, 7, 10, 12 (before dosing), 13, 14, 15, 16, 17, 18, 19, 20, 21, 22, 24, 26 and 28 before peptide treatment and one hour after treatment on day 30.
The disease severity score is based on the following:
The ability of Kv1.3 inhibitor treatment to reduce chronic inflammation in arthritis was investigated by comparing the response in rats (n=9 animals/group) treated with vehicle to that of rats treated with peptide 100 daily, every third day or every fifth day. The severity of arthritis was determined by summation of the disease score on all four paws from day 12 to day 30 for each animal.

T1 sequence (Q09470 whole entry): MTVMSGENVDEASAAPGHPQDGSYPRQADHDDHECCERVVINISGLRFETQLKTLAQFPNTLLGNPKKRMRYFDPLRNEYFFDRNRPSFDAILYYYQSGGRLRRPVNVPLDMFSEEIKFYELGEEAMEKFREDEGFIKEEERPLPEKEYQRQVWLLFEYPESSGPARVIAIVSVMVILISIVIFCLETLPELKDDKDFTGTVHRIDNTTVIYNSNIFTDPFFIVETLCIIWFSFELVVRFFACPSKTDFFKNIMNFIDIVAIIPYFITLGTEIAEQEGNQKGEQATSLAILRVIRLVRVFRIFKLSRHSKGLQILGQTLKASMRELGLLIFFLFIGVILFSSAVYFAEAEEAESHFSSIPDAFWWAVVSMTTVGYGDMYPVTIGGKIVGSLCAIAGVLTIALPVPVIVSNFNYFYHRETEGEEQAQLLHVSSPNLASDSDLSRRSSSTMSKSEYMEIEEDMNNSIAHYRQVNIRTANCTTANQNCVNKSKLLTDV
T2 sequence (P22001 whole entry): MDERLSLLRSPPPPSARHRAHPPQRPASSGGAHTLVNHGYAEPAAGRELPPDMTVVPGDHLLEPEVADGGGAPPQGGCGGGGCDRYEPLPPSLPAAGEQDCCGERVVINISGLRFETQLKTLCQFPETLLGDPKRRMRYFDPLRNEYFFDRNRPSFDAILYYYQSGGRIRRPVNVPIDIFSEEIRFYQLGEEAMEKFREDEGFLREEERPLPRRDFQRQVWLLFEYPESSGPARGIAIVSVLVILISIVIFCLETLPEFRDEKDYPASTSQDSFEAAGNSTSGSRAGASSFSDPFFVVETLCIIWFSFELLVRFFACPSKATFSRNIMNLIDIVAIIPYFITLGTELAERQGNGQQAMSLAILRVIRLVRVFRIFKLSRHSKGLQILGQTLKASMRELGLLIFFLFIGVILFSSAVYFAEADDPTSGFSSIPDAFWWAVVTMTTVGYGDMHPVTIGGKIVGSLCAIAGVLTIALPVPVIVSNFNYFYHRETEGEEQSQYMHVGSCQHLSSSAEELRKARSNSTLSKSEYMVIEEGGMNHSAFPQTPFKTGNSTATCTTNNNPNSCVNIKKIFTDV

## H-P[Nle]E[Nle]RC(1)SASVEC(2)KQKC(3)LAAIGSIFGKC(1)[Nle]NKKC(2)KC(3)YPR-OH [Peptide 100]
Kv1.1; QPatch, CHO cells stably expressing human Kv1.1, read-out: Potency IC50, Kv1.1
  IC50: > 3000 nM
Kv1.1; ratio of IC50 Kv1.1/Kv1.3
  Selectivity Kv1.1/Kv1.3: >9100
Kv1.3
  IC50: 0.33 nM
[1]; 10 nmol/kg s.c., challenge day 11, 24 hrs post-challenge, vehicle 0.848, p=0.0495
  Mean ear thickness of KLH-induced ear: 0.807±0.025 mm
[1]; 10 nmol/kg s.c., challenge day 11, 48 hrs post-challenge, vehicle 0.819, p=0.0009
  Mean ear thickness of KLH-induced ear: 0.761±0.025 mm
[1]; 100 nmol/kg s.c., challenge day 11, 24 hrs post-challenge, vehicle 0.848, p=0.0015
  Mean ear thickness of KLH-induced ear: 0.777±0.019 mm
[1]; 100 nmol/kg s.c., challenge day 11, 48 hrs post-challenge, vehicle 0.819, p<0.0001
  Mean ear thickness of KLH-induced ear: 0.713±0.034 mm
[1]; 300 nmol/kg s.c., challenge day 11, 24 hrs post-challenge, vehicle 0.848, p=0.0005
  Mean ear thickness of KLH-induced ear: 0.772±0.009 mm
[1]; 300 nmol/kg s.c., challenge day 11, 48 hrs post-challenge, vehicle 0.819, p<0.0001
  Mean ear thickness of KLH-induced ear: 0.684±0.016 mm
[1]; 700 nmol/kg s.c., challenge day 11, 24 hrs post-challenge, vehicle 0.848, p=0.0007
  Mean ear thickness of KLH-induced ear: 0.771±0.018 mm
[1]; 700 nmol/kg s.c., challenge day 11, 48 hrs post-challenge, vehicle 0.819, p<0.0001
  Mean ear thickness of KLH-induced ear: 0.671±0.011 mm
[1]; 24 hrs post-challenge, day 2 post-treatment, 100 nmol/kg SC
  Mean ear thickness of KLH-induced ear: 0.704 mm
[1]; 24 hrs post-challenge, day 6 post-treatment, 10 nmol/kg SC
  Mean ear thickness of KLH-induced ear: 0.807 mm
[1]; 24 hrs post-challenge, day 6 post-treatment, 100 nmol/kg SC
  Mean ear thickness of KLH-induced ear: 0.777 mm
[1]; 24 hrs post-challenge, day 6 post-treatment, 300 nmol/kg SC
  Mean ear thickness of KLH-induced ear: 0.772 mm
[1]; 24 hrs post-challenge, day 6 post-treatment, 700 nmol/kg SC
  Mean ear thickness of KLH-induced ear: 0.771 mm
[1]; 48 hrs post-challenge, day 3 post-treatment, 100 nmol/kg SC
  Mean ear thickness of KLH-induced ear: 0.652 mm
[1]; 48 hrs post-challenge, day 7 post-treatment, 10 nmol/kg SC
  Mean ear thickness of KLH-induced ear: 0.761 mm
[1]; 48 hrs post-challenge, day 7 post-treatment, 100 nmol/kg SC
  Mean ear thickness of KLH-induced ear: 0.713 mm
[1]; 48 hrs post-challenge, day 7 post-treatment, 300 nmol/kg SC
  Mean ear thickness of KLH-induced ear: 0.684 mm
[1]; 48 hrs post-challenge, day 7 post-treatment, 700 nmol/kg SC
  Mean ear thickness of KLH-induced ear: 0.671 mm
[1]; KLH-induced DTH model, s.c.
  dose with which a maximal effect is obtained: 300 nmol/kg
[1]; s.c. day 6, dose not given, challenge day 7, 24 hrs post-challenge, vehicle 0.721, p=0.1216
  Mean ear thickness of KLH-induced ear: 0.704±0.018 mm
[1]; s.c. day 6, dose not given, challenge day 7, 48 hrs post-challenge, vehicle 0.694, p=0.0008
  Mean ear thickness of KLH-induced ear: 0.652±0.026 mm
[2]; 100 nmol/kg s.c. daily, every third day or every fifth day, day 12 to day 30, in words
  Mean clinical score: reduction of the mean clinical score with all dosing regimens
[2]; Q3D SC 100 nmol/kg, day 12
  Mean clinical score: 0.8
[2]; Q3D SC 100 nmol/kg, day 13
  Mean clinical score: 2.0
[2]; Q3D SC 100 nmol/kg, day 14
  Mean clinical score: 4.1
[2]; Q3D SC 100 nmol/kg, day 15
  Mean clinical score: 4.4
[2]; Q3D SC 100 nmol/kg, day 16
  Mean clinical score: 5.0
[2]; Q3D SC 100 nmol/kg, day 17
  Mean clinical score: 5.6
[2]; Q3D SC 100 nmol/kg, day 18
  Mean clinical score: 6.4
[2]; Q3D SC 100 nmol/kg, day 19
  Mean clinical score: 6.6
[2]; Q3D SC 100 nmol/kg, day 20
  Mean clinical score: 7.2
[2]; Q3D SC 100 nmol/kg, day 21
  Mean clinical score: 7.3
[2]; Q3D SC 100 nmol/kg, day 22
  Mean clinical score: 8.0
[2]; Q3D SC 100 nmol/kg, day 24
  Mean clinical score: 8.2
[2]; Q3D SC 100 nmol/kg, day 26
  Mean clinical score: 8.4
[2]; Q3D SC 100 nmol/kg, day 28
  Mean clinical score: 9.0
[2]; Q3D SC 100 nmol/kg, day 30
  Mean clinical score: 10.0
[2]; Q5D SC 100 nmol/kg, day 12
  Mean clinical score: 2.4
[2]; Q5D SC 100 nmol/kg, day 13
  Mean clinical score: 3.3
[2]; Q5D SC 100 nmol/kg, day 14
  Mean clinical score: 4.6
[2]; Q5D SC 100 nmol/kg, day 15
  Mean clinical score: 4.9
[2]; Q5D SC 100 nmol/kg, day 16
  Mean clinical score: 5.4
[2]; Q5D SC 100 nmol/kg, day 17
  Mean clinical score: 5.8
[2]; Q5D SC 100 nmol/kg, day 18
  Mean clinical score: 6.2
[2]; Q5D SC 100 nmol/kg, day 19
  Mean clinical score: 6.4
[2]; Q5D SC 100 nmol/kg, day 20
  Mean clinical score: 6.9
[2]; Q5D SC 100 nmol/kg, day 21
  Mean clinical score: 7.1
[2]; Q5D SC 100 nmol/kg, day 22
  Mean clinical score: 7.6
[2]; Q5D SC 100 nmol/kg, day 24
  Mean clinical score: 8.2
[2]; Q5D SC 100 nmol/kg, day 26
  Mean clinical score: 8.5
[2]; Q5D SC 100 nmol/kg, day 28
  Mean clinical score: 9.0
[2]; Q5D SC 100 nmol/kg, day 30
  Mean clinical score: 9.4
[2]; QD SC 100 nmol/kg, day 12
  Mean clinical score: 0.8
[2]; QD SC 100 nmol/kg, day 13
  Mean clinical score: 2.1
[2]; QD SC 100 nmol/kg, day 14
  Mean clinical score: 4.3
[2]; QD SC 100 nmol/kg, day 15
  Mean clinical score: 4.7
[2]; QD SC 100 nmol/kg, day 16
  Mean clinical score: 5.8
[2]; QD SC 100 nmol/kg, day 17
  Mean clinical score: 6.0
[2]; QD SC 100 nmol/kg, day 18
  Mean clinical score: 6.6
[2]; QD SC 100 nmol/kg, day 19
  Mean clinical score: 6.7
[2]; QD SC 100 nmol/kg, day 20
  Mean clinical score: 7.0
[2]; QD SC 100 nmol/kg, day 21
  Mean clinical score: 7.1
[2]; QD SC 100 nmol/kg, day 22
  Mean clinical score: 7.1
[2]; QD SC 100 nmol/kg, day 24
  Mean clinical score: 6.9
[2]; QD SC 100 nmol/kg, day 26
  Mean clinical score: 7.0
[2]; QD SC 100 nmol/kg, day 28
  Mean clinical score: 7.8
[2]; QD SC 100 nmol/kg, day 30
  Mean clinical score: 8.4
